# Measurements taken from ChEMBL document CHEMBL1149867, “Salinipyrones and pacificanones, mixed-precursor polyketides from the marine actinomycete Salinispora pacifica” (2008).
# Tested on: Splenocyte
# Test: Inhibition of IL5 production in mouse splenocyte model of allergic inflammation at 10 ug/ml
# Format: functional
smiles,measurement,value
CC[C@@H](O)[C@@H](C)/C=C(C)/C=C/c1oc(=O)c(C)c(O)c1C [SALINIPYRONE A],inhibition at 10 µg/mL,50%
